Experimental data taken from patent US20240192237A1 (curantis UG, priority 2021, published 2024).

Columns and labels:
[1] = test system: patients with schizophrenia; assay: Estimated correlation between CBD plasma concentration and percentage change of PANSS score at day 14; assay type: in vivo; conditions: for Estimated CBD plasma concentration, PANSS_N, average / Estimated CBD plasma concentration, PANSS_P, average / Estimated CBD plasma concentration, PANSS_T, average / Estimated CBD plasma concentration, PANSS_G, average: two weeks after commencement
From the text: In general, it is expected that a percentage change of 50% of the PANSS score(s) vis-à-vis the baseline score after four to six weeks of treatment indicates a significant improvement of the PANSS score(s) (see Correll C. U., “Quantifying clinical relevance in the treatment of schizophrenia, Clinical Therapeutics”, Vol. 33, Number 12, 2011, B16-B39).
Since the PANSS score(s) cover symptoms experienced or observed during the preceding 7 days, the minimum required observation period is one week. To avoid an overlap to the observation of initial symptoms, a treatment period of 2 weeks is considered a minimum reliable period. Therefore, we analyzed the treatment effect after 2 weeks of treatment. Due to the analyzed shortened treatment period a percentage change of 25% of the PANSS score(s) vis-à-vis the baseline score indicates a significant improvement of the PANSS score(s).

[2] = CBD trough plasma concentration in clinical trials CBD-CT1 and CBD-PT (LC-MS/MS); assay type: in vivo, patients; conditions: for concentration at 7 day: Day 7, mean ± SD; for concentration at 14 day: Day 14, mean ± SD
Procedure: CBD was administered as an oral dose in a capsule formulation. The dose was increased during the first week from 200 mg/d to 800 mg/d (4×200 mg) and remained at this level for the rest of the study period. Due to serious unwanted effects, the dose could be reduced irreversibly to 600 mg/d starting with day 15. […] Dose applications, blood sampling, and assessment of PANSS followed the time schedule presented below. Additional treatment with 7.5 mg lorazepam per day during the whole study period was permitted. […]
Eighteen patients with a diagnosis of schizophrenia or schizophreniform disorder should be included in this trial per protocol. Because dropouts had to be replaced by a new patient a total number of 29 patients was randomized from February 2006 to June 2008. All randomized patients complied with all inclusion and exclusion criteria: age between 18 and 65, male and female, specific DSM-IV diagnoses, initial BPRS score≥36, no pregnancy or lactation phase, reliable contraception, no lack of accountability, no other relevant interferences, no treatment with depot-antipsychotics during the last three months, no severe internal or neurological illness, no QTc prolongation, no acute suicidality nor endangerment of others by the patient. […] Treatment lasted four weeks: the first period with two weeks of CBD or placebo treatment was followed by a second period with a two-week treatment of placebo or CBD, respectively. There was no washout period between the two treatments. […] The dose could be reduced irreversibly to 400 mg/d in case of serious unwanted effects. […] The PANSS was applied at baseline and day 14 and 28. Dose applications, blood sampling, and assessment of PANSS followed the time schedule presented below. Additional treatment with 5.0 mg lorazepam per day during the whole study period was permitted. […]
Therefore, documentation of time points when CBD was administered and when blood samples were taken was limited and not included in the electronic data. Information on possible dose reductions e.g. due to adverse events were missing in the electronic data, too. In cooperation with the PI, time points were inputted based on standard routines on the ward: application of study medication was set to 9:00 AM, 12:30 PM, 6:30 PM, and 10:00 PM, and blood sampling was scheduled at 8:45 AM. Assessment of the PANSS was also timed to 8:45 AM. The loss of accuracy by standardizing times was considered acceptable because the time interval between doses and blood sampling is long, so small deviations would have no major impact. Information on actually applied doses or reduced doses was updated in cooperation with a member of the PI's research group. Based on notes in archived patient's case report files and other paper-based documents the electronic data was adjusted.
After consultation with the PI, these values were replaced with 0 because all patients with positive drug screening were excluded from the clinical trial according to the study protocol. Baseline values>0 may result from errors in procedure e.g. when blood samples were taken after dose application. Therefore, the replacement is considered as being equivalent to an imputation of a predose measurement which was not conducted.

[3] = both sexes, human, plasma, oral capsule 600 mg/d, cross-over with placebo

## C=C(C)[C@@H]1CCC(C)=C[C@H]1c1c(O)cc(CCCCC)cc1O [CBD, cannabidiol]
[1]; PANSS delta 10% vs baseline, range (12.9; 28.9)
  Estimated CBD plasma concentration, PANSS_N, average: 17.8 µg/L
[1]; PANSS delta 10% vs baseline, range (13.0; 35.7)
  Estimated CBD plasma concentration, PANSS_P, average: 19.1 µg/L
[1]; PANSS delta 10% vs baseline, range (13.4; 25.5)
  Estimated CBD plasma concentration, PANSS_T, average: 17.5 µg/L
[1]; PANSS delta 20% vs baseline, range (25.7; 57.7)
  Estimated CBD plasma concentration, PANSS_N, average: 35.6 µg/L
[1]; PANSS delta 20% vs baseline, range (26.0; 71.4)
  Estimated CBD plasma concentration, PANSS_P, average: 38.2 µg/L
[1]; PANSS delta 20% vs baseline, range (26.6; 49.2)
  Estimated CBD plasma concentration, PANSS_G, average: 34.5 µg/L
[1]; PANSS delta 20% vs baseline, range (26.7; 50.9)
  Estimated CBD plasma concentration, PANSS_T, average: 35.0 µg/L
[1]; PANSS delta 25% vs baseline, range (32.2; 72.1)
  Estimated CBD plasma concentration, PANSS_N, average: 44.5 µg/L
[1]; PANSS delta 25% vs baseline, range (32.5; 89.3)
  Estimated CBD plasma concentration, PANSS_P, average: 47.7 µg/L
[1]; PANSS delta 25% vs baseline, range (33.2; 61.5)
  Estimated CBD plasma concentration, PANSS_G, average: 43.1 µg/L
[1]; PANSS delta 25% vs baseline, range (33.4; 63.7)
  Estimated CBD plasma concentration, PANSS_T, average: 43.8 µg/L
[1]; PANSS delta 30% vs baseline, range (38.6; 86.6)
  Estimated CBD plasma concentration, PANSS_N, average: 53.4 µg/L
[1]; PANSS delta 30% vs baseline, range (39.1; 107.1)
  Estimated CBD plasma concentration, PANSS_P, average: 57.2 µg/L
[1]; PANSS delta 30% vs baseline, range (39.8; 73.8)
  Estimated CBD plasma concentration, PANSS_G, average: 51.8 µg/L
[1]; PANSS delta 30% vs baseline, range (40.1; 76.4)
  Estimated CBD plasma concentration, PANSS_T, average: 52.6 µg/L
[1]; PANSS delta 40% vs baseline, range (51.5; 115.4)
  Estimated CBD plasma concentration, PANSS_N, average: 71.2 µg/L
[1]; PANSS delta 40% vs baseline, range (52.1; 142.8)
  Estimated CBD plasma concentration, PANSS_P, average: 76.3 µg/L
[1]; PANSS delta 40% vs baseline, range (53.1; 98.4)
  Estimated CBD plasma concentration, PANSS_G, average: 69.0 µg/L
[1]; PANSS delta 40% vs baseline, range (53.4; 101.9)
  Estimated CBD plasma concentration, PANSS_T, average: 70.1 µg/L
[1]; PANSS delta 50% vs baseline, range (64.3; 144.3)
  Estimated CBD plasma concentration, PANSS_N, average: 89.0 µg/L
[1]; PANSS delta 50% vs baseline, range (65.1; 178.5)
  Estimated CBD plasma concentration, PANSS_P, average: 95.4 µg/L
[1]; PANSS delta 50% vs baseline, range (66.4; 123.0)
  Estimated CBD plasma concentration, PANSS_G, average: 86.3 µg/L
[1]; PANSS delta 50% vs baseline, range (66.8; 127.3)
  Estimated CBD plasma concentration, PANSS_T, average: 87.6 µg/L
[1]; PANSS delta 60% vs baseline, range (78.1; 214.2)
  Estimated CBD plasma concentration, PANSS_P, average: 114.5 µg/L
[1]; PANSS delta 60% vs baseline, range (79.7; 147.6)
  Estimated CBD plasma concentration, PANSS_G, average: 103.5 µg/L
[1]; PANSS delta 60% vs baseline, range (80.1; 152.8)
  Estimated CBD plasma concentration, PANSS_T, average: 105.1 µg/L
[1]; PANSS delta 70% vs baseline, range (90.1; 202.0)
  Estimated CBD plasma concentration, PANSS_N, average: 124.6 µg/L
[1]; PANSS delta 70% vs baseline, range (91.1; 249.9)
  Estimated CBD plasma concentration, PANSS_P, average: 133.6 µg/L
[1]; PANSS delta 70% vs baseline, range (93.0; 172.2)
  Estimated CBD plasma concentration, PANSS_G, average: 120.8 µg/L
[1]; PANSS delta 70% vs baseline, range (93.5; 178.3)
  Estimated CBD plasma concentration, PANSS_T, average: 122.6 µg/L
[1]; PANSS delta 75% vs baseline, range (96.5; 216.4)
  Estimated CBD plasma concentration, PANSS_N, average: 133.5 µg/L
[1]; PANSS delta 75% vs baseline, range (97.6; 267.8)
  Estimated CBD plasma concentration, PANSS_P, average: 143.1 µg/L
[1]; PANSS delta 75% vs baseline, range (99.6; 184.5)
  Estimated CBD plasma concentration, PANSS_G, average: 129.4 µg/L
[1]; PANSS delta 75% vs baseline, range (100.1; 191.0)
  Estimated CBD plasma concentration, PANSS_T, average: 131.4 µg/L
[1]; PANSS delta 80% vs baseline, range (102.9; 230.8)
  Estimated CBD plasma concentration, PANSS_N, average: 142.4 µg/L
[1]; PANSS delta 80% vs baseline, range (104.1; 285.6)
  Estimated CBD plasma concentration, PANSS_P, average: 152.6 µg/L
[1]; PANSS delta 80% vs baseline, range (106.3; 196.8)
  Estimated CBD plasma concentration, PANSS_G, average: 138.0 µg/L
[1]; PANSS delta 80% vs baseline, range ([…]; 203.7)
  Estimated CBD plasma concentration, PANSS_T, average: 140.2 µg/L
[1]; PANSS delta 90% vs baseline, range (115.8; 259.7)
  Estimated CBD plasma concentration, PANSS_N, average: 160.2 µg/L
[1]; PANSS delta 90% vs baseline, range (117.2; 321.3)
  Estimated CBD plasma concentration, PANSS_P, average: 171.7 µg/L
[1]; PANSS delta 90% vs baseline, range (119.5; 221.4)
  Estimated CBD plasma concentration, PANSS_G, average: 155.3 µg/L
[1]; PANSS delta 90% vs baseline, range (120.2; 229.2)
  Estimated CBD plasma concentration, PANSS_T, average: 157.7 µg/L
[1]; PANSS delta 100% vs baseline, range (128.7; 288.5)
  Estimated CBD plasma concentration, PANSS_N, average: 178.0 µg/L
[1]; PANSS delta 100% vs baseline, range (130.2; 357.0)
  Estimated CBD plasma concentration, PANSS_P, average: 190.8 µg/L
[1]; PANSS delta 100% vs baseline, range (132.8; 246.0)
  Estimated CBD plasma concentration, PANSS_G, average: 172.5 µg/L
[1]; PANSS delta 100% vs baseline, range (133.5; 254.6)
  Estimated CBD plasma concentration, PANSS_T, average: 175.2 µg/L
[1]; after 2 weeks of treatment
  CBD plasma concentration that results in the required percentage change (25%) of the PANSS score(s): at least 25 μg/l
[2]; Day 21, mean ± SD, cross-over, 0 PT patients under CBD treatment per table
  CBD plasma concentration, CBD-PT: 4.0 ± 1.2 µg/L
[2]; both sexes, human, plasma, oral, 600 mg/d
  concentration at 28 day: 2.3 ± 1 ng/mL
[2]; both sexes, human, plasma, oral, 600 mg/d, CBD-CT1 + CBD-PT pooled (only PT measured)
  concentration at 7 day: 14.1 ± 9.1 ng/mL
[2]; both sexes, human, plasma, oral, 600 mg/d, Day 21, mean ± SD, pooled (only PT measured)
  concentration at 21 day: 4 ± 1.2 ng/mL
[2]; [3]
  concentration at 7 day: 14.1 ± 9.1 ng/mL
  concentration at 14 day: 19.3 ± 8.7 ng/mL
[2]; human, plasma, oral, CBD-CT1 + CBD-PT pooled
  concentration at 14 day: 35.4 ± 22.6 ng/mL
[2]; human, plasma, oral, Day 28, mean ± SD, CBD-CT1 + CBD-PT pooled
  concentration at 28 day: 29.2 ± 27.8 ng/mL
[2]; human, plasma, oral capsule 800 mg/d (titrated from 200 mg/d in first week), trough
  concentration at 14 day: 50.5 ± 21.2 ng/mL
[2]; human, plasma, Day 28, mean ± SD, oral capsule 800 mg/d, trough
  concentration at 28 day: 42.6 ± 24.7 ng/mL
